# Measured values reported in patent US20070093554A1, “AGENT FOR IMPROVING FEELING OF COLD” (priority 2005, published 2007).
# Assay: Improvement in feeling of cold evaluated by Visual Analogue Scale (VAS) method after 3 weeks ingestion of tablets
# Type: in vivo, human
# Conditions: 6 tablets of example 1 a day for 3 weeks, normal subjects 45 to 64 years, vs tablet not containing ornithine; FIG. 2
# Experimental: Before the ingestion and just after the ingestion, the improvements in feeling of cold of each subject were evaluated using Visual Analogue Scale (VAS) method.
# Specifically each end of the segment has a criterion of expression. Referring to FIG. 1, each subject marked somewhere in the line, corresponding to each term of the questionnaires. The distance (mm) from the left end of the line to the marked point was measured and the difference between before and after the test was calculated. The difference by the value before the test was shown in the percentage calculated; and each average value and standard deviation for each group were calculated. […] Further, it was confirmed that there was no difference between two groups before the administration test.
# Further the test was carried out under a random assignment and the comparison between the double blind parallel groups was carried out. The test of the statistically significant difference between two groups was an unpaired t-test of both side distributions using the difference between the beginning and just after the test.
smiles,measurement,value
NCCC[C@H](N)C(=O)O [ornithine],"coldness of hands and feet (improvement, VAS)",improved remarkably
